Values joined by “and” are separate entries in the source; they are usually repeats but may differ in a detail not shown here. Equal entries are not always repeated. Where two headings read alike, the source gives them in different places.
Columns and labels:
[1] = target: Dog DHODH (Canis lupus familiaris, UniProt A0A8I3MWX2); assay: Cell-free multi-species DHODH enzyme inhibition assay, dog; format: biochemical; details: n=1
[2] = LogD; format: physicochemical; details: pH 7.4
From the text: (§1) Supplement jciinsight-9-173646-s083.xlsx, sheet "Supplemental Table S.2." | column: HOSU-53

[3] = system: U937; assay: MTS proliferation assay, U937; format: cell-based; details: Homo sapiens, U-937; U937, 96-hour treatment; read-out: IC50 (MTS proliferation)
Procedure: (§2) A total of 10,000–20,000 cells from different AML lines or 50,000–75,000 cells of primary AML blasts were treated in a 96-well plate for 72 hours or 96 hours at 37°C, 5% CO2. CellTiter 96 Aqueous MTS reagent (Promega) was added to cells followed by a 3-hour incubation at 37°C, 5% CO2. The absorbance was measured at 490 nm using DTX 880 plate reader, and the IC50 was calculated using GraphPad Prism.

[4] = system: plasma dihydroorotate (DHO); assay: Single-dose PD: plasma DHO accumulation in mice; format: in vivo, male C57BL/6 mice; details: HOSU-53 10 mpk PO, per mouse
Procedure: (§3) In the i.v. cohort, serial blood samples were collected in tubes containing K2EDTA at 0.083, 0.25, 0.5, 1, 2, 6, 24, 48, and 72 hours postdose while in the oral gavage cohort, serial blood samples were collected at 0.25, 0.5, 1, 2, 4, 8, 24, 48, and 72 hours postdose. Blood samples were processed to plasma to analyze for HOSU-53 and L-dihydroorotic acid (DHO) concentrations using liquid chromatography-tandem mass spectrometry. page 6: Plasma samples were obtained following appropriate dosing administration and saved in the -80°C freezer till the time of analysis. Analyses by LC-MS/MS followed sample extraction by protein precipitation and separation by Ultra Performance Liquid Chromatography (UPLC, Waters Corporation, MA, USA) using a C18 column, 1.7um, 2.1x50mm, Mobile Phase A: 5:95:0.1 (v:v:v) Acetonitrile:Water:Formic Acid, Mobile Phase B: 50:50:0.1 (v:v:v) Methanol:Acetonitrile:Formic Acid. MS/MS analyses were performed on an API-6500 (Absciex MA, USA) in positive mode using an electrospray source at 550°C. The internal standard was d4-AEA monitored at 352.2 and 66.0 m/z transitions and the target analyte, HOSU-53, was monitored at 416.5 and 331.1 m/z transitions. The assay was qualified between 10-5,000 ng/ml HOSU53 to be within ±20% for QCs above the LLOQ in this range and ±25% at the LLOQ. DHO concentration quantification in mouse plasma samples. Plasma samples were obtained following appropriate dosing administration and saved in the -80°C freezer till the time of analysis. Analyses by LC-MS/MS followed sample extraction by protein precipitation and separation by Ultra Performance Liquid Chromatography (UPLC, Waters Corporation, MA, USA) using a Phenomenex Aqua C18 100x4.6mm, 3uM, […], Mobile Phase A: 100:0.1 (v:v) Water:Formic Acid, Mobile Phase B: 100:0.1 (v:v) Methanol:Formic Acid. MS/MS analyses were performed on an API-4000 (Absciex MA, USA) in negative mode using an electrospray source at 550°C. The internal standard was labeled 13C14_L-Dihydroorotic Acid monitored at 161.3 and 117.1 m/z transitions and the target analyte, L-Dihydroorotic Acid (DHO), was monitored at 157.0 and 70.0 m/z transitions. The assay was qualified between 10.0-30,000 ng/ml DHO to be within ±20% for QCs above the LLOQ in this range and ±25% at the LLOQ.

[5] = Single-dose HOSU-53 PK in mice; format: in vivo, male C57BL/6 mice
Procedure: as §3

[6] = system: primary AML samples; assay: MTS proliferation assay, primary AML samples; format: cell-based, human; parameters: MTS proliferation data value: unit not given here; details: 96 h; for MTS proliferation data value: replicates; for IC50: Homo sapiens
Procedure: as §2

[7] = target: CYP 2B6 (Homo sapiens, UniProt P20813); assay: CYP inhibition 2B6; format: in vitro ADME
Sequence of CYP 2B6 (P20813 whole entry): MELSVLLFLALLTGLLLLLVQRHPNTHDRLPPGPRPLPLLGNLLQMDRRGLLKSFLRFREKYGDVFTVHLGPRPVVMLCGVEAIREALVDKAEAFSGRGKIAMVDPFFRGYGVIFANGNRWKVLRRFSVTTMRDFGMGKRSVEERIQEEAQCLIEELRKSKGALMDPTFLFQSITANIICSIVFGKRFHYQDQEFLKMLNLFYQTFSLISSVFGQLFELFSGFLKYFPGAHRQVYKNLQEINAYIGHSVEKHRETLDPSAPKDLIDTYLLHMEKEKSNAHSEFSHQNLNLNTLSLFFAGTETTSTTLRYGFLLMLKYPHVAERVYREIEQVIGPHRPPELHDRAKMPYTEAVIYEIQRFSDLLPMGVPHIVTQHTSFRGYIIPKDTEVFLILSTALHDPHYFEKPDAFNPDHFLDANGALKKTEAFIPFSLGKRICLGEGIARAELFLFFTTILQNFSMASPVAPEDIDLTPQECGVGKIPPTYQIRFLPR
From the text: as §1

[8] = male, C57BL/6, plasma, po, 10 mg/kg p.o. single dose, mouse

Sequence of Dog DHODH (A0A8I3MWX2 1-406): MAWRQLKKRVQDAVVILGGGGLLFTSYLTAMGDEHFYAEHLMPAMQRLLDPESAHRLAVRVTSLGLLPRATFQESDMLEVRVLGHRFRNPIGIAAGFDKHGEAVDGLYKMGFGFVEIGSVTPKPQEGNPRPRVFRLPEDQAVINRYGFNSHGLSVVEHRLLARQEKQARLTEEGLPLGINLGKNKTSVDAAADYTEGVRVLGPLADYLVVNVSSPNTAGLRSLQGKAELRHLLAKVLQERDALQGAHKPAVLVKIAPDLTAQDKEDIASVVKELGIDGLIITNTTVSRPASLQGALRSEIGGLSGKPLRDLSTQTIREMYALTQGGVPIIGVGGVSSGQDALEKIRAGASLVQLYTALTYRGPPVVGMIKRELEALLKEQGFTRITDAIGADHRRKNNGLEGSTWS

Work on CCCCOc1cccc(-c2ccc(-c3cc(C(=O)O)c4cc(F)ccc4n3)cc2)c1 [HOSU-53] yielded an IC50 [1] of 1.25 nM, a logD [2] of 4.36 and an IC50 [3] of 33 nM. The DHO plasma concentration ([4]; 0.5 h postdose) was 0.2422 µM, the DHO plasma concentration ([4]; 1 h postdose, 10 mg/kg) was 0.6072 µM and 0.4288 µM and 0.8412 µM and the DHO plasma concentration ([4]; 2 h postdose, 10 mg/kg) was 2.068 µM and 1.512 µM and 1.613 µM. The DHO plasma concentration ([4]; 4 h postdose, 10 mg/kg) was 2.783 µM and 2.701 µM and 3.7758 µM, the DHO plasma concentration ([4]; 8 h postdose, 10 mg/kg) was 6.325 µM and 4.807 µM and 6.894 µM and the DHO plasma concentration ([4]; 24 h postdose, 10 mg/kg) was 9.613 µM and 11.9535 µM and 9.74 µM. For the same compound, the DHO plasma concentration ([4]; 48 h postdose, 10 mg/kg) was 4.364 µM and 4.453 µM and 2.467 µM, the DHO plasma concentration ([4]; 72 h postdose, 10 mg/kg) was 1.189 µM and 0.9613 µM and 1.132 µM and the HOSU-53 plasma concentration ([5]; 10 mpk PO, 0.25 h postdose, per mouse) was 130.695 µM and 175.464 µM. For the same compound, the HOSU-53 plasma concentration ([5]; 10 mpk PO, 0.5 h postdose, per mouse) was 155.968 µM and 199.774 µM, the HOSU-53 plasma concentration ([5]; 10 mpk PO, 1 h postdose, per mouse) was 185.332 µM and 227.213 µM and the HOSU-53 plasma concentration ([5]; 10 mpk PO, 2 h postdose, per mouse) was 171.131 µM and 199.774 µM. The HOSU-53 plasma concentration ([5]; 10 mpk PO, 4 h postdose, per mouse) was 168.002 µM and 190.146 µM, the HOSU-53 plasma concentration ([5]; 10 mpk PO, 8 h postdose, per mouse) was 182.925 µM and 197.848 µM and the HOSU-53 plasma concentration ([5]; 10 mpk PO, 24 h postdose, per mouse) was 152.839 µM and 120.105 µM. The HOSU-53 plasma concentration ([5]; 10 mpk PO, 48 h postdose, per mouse) was 81.835 µM and 67.6342 µM, the HOSU-53 plasma concentration ([5]; 10 mpk PO, 72 h postdose, per mouse) was 47.1755 µM and 36.5851 µM and the concentration at 0.25 h ([5]; male, C57BL/6, mouse, plasma, oral, 10 mg/kg, 10 mpk PO, 0.25 h postdose, per mouse) was 114 µM. The concentration at 0.5 h ([5]; male, C57BL/6, mouse, plasma, oral, 10 mg/kg, 10 mpk PO, 0.5 h postdose, per mouse) was 155 µM, the concentration at 1 h ([5]; male, C57BL/6, mouse, plasma, oral, 10 mg/kg, 10 mpk PO, 1 h postdose, per mouse) was 209 µM and the concentration at 2 h ([5]; male, C57BL/6, mouse, plasma, oral, 10 mg/kg, 10 mpk PO, 2 h postdose, per mouse) was 215 µM. The concentration at 4 h ([5]; male, C57BL/6, mouse, plasma, oral, 10 mg/kg, 10 mpk PO, 4 h postdose, per mouse) was 218 µM, the concentration at 8 h ([5]; male, C57BL/6, mouse, plasma, oral, 10 mg/kg, 10 mpk PO, 8 h postdose, per mouse) was 175 µM and the concentration at 24 h ([5]; male, C57BL/6, mouse, plasma, oral, 10 mg/kg, 10 mpk PO, 24 h postdose, per mouse) was 130 µM. The concentration at 48 h ([5]; male, C57BL/6, mouse, plasma, oral, 10 mg/kg, 10 mpk PO, 48 h postdose, per mouse) was 75.1 µM, the concentration at 72 h ([5]; male, C57BL/6, mouse, plasma, oral, 10 mg/kg, 10 mpk PO, 72 h postdose, per mouse) was 43.8 µM and the bioavailability ([5]; male, C57BL/6, plasma, oral, p.o. 10 mg/kg vs i.v. 3 mg/kg, mouse, read-out: Bioavailability (F)) was 85%. For the same compound, the Cmax [5, 8] was 210 µM, the half-life [5, 8] was 29 h and the AUC(0-t) ([5]; male, C57BL/6, plasma, po, 10 mg/kg p.o. single dose, mouse, read-out: Plasma AUC0–72h) was 7960 µM·h. The “MTS proliferation data value” ([6]; 0.25 µM, Pt.1) was 18.4884 and 20.0581 and 18.3139, the “MTS proliferation data value” ([6]; 0.25 µM, Pt.2) was 32.3851 (2×) and 33.2604 and the “MTS proliferation data value” ([6]; 0.25 µM, Pt.3) was 55.8692 and 53.1947. For the same compound, the “MTS proliferation data value” ([6]; 0.25 µM, Pt.4) was 65.8976 and 67.7546 and 63.7029, the “MTS proliferation data value” ([6]; 0.25 µM, Pt.5) was 79.2706 and 80.6142 and 76.9674 and the “MTS proliferation data value” ([6]; 0.25 µM, Pt.6) was 33.7613 and 67.7492 and 73.4139. The “MTS proliferation data value” ([6]; 0.25 µM, Pt.7) was 62.3298 and 55.7489 and 55.295, the “MTS proliferation data value” ([6]; 0.25 µM, Pt.8) was 107.765 and 102.823 and 101.765 and the “MTS proliferation data value” ([6]; 0.5 µM, Pt.1) was 16.3954 and 17.2674 and 16.2209. For the same compound, the “MTS proliferation data value” ([6]; 0.5 µM, Pt.2) was 27.5711 and 28.884 and 28.2276, the “MTS proliferation data value” ([6]; 0.5 µM, Pt.3) was 49.3314 and 49.0342 and 46.211 and the “MTS proliferation data value” ([6]; 0.5 µM, Pt.4) was 54.2487 and 57.2876 and 57.4564. The “MTS proliferation data value” ([6]; 0.5 µM, Pt.5) was 73.1286 and 69.0979 and 69.2898, the “MTS proliferation data value” ([6]; 0.5 µM, Pt.6) was 55.9668 and 65.2568 and 57.5529 and the “MTS proliferation data value” ([6]; 0.5 µM, Pt.7) was 44.4024 and 40.0908 and 37.1407. For the same compound, the “MTS proliferation data value” ([6]; 0.5 µM, Pt.8) was 86.9412 and 90.8235 and 88.3529, the “MTS proliferation data value” ([6]; 0.75 µM, Pt.1) was 15 and 14.4767 and 15.1744 and the “MTS proliferation data value” ([6]; 0.75 µM, Pt.2) was 23.4136 and 22.1007 and 24.5077. For the same compound, the “MTS proliferation data value” ([6]; 0.75 µM, Pt.3) was 39.8217 and 43.685 and 41.9019, the “MTS proliferation data value” ([6]; 0.75 µM, Pt.4) was 52.2229 (2×) and 53.7423 and the “MTS proliferation data value” ([6]; 0.75 µM, Pt.5) was 64.4914 and 65.8349 (2×). For the same compound, the “MTS proliferation data value” ([6]; 0.75 µM, Pt.6) was 26.5106 and 39.426 and 36.7069, the “MTS proliferation data value” ([6]; 0.75 µM, Pt.7) was 37.1407 and 39.8638 and 33.2829 and the “MTS proliferation data value” ([6]; 0.75 µM, Pt.8) was 77.0588 (2×) and 79.1765. The “MTS proliferation data value” ([6]; 1 µM, Pt.1) was 14.4767 and 15.5233 and 13.7791, the “MTS proliferation data value” ([6]; 1 µM, Pt.2) was 21.663 (2×) and 22.9759 and the “MTS proliferation data value” ([6]; 1 µM, Pt.3) was 40.1189 and 38.633 and 39.5245. The “MTS proliferation data value” ([6]; 1 µM, Pt.4) was 47.327 and 51.7164 and 51.5476, the “MTS proliferation data value” ([6]; 1 µM, Pt.5) was 64.6833 and 63.5317 and 66.6027 and the “MTS proliferation data value” ([6]; 1 µM, Pt.6) was 19.0332 and 30.5891 and 31.9486. The “MTS proliferation data value” ([6]; 1 µM, Pt.7) was 33.9637 and 32.6021 and 29.879, the “MTS proliferation data value” ([6]; 1 µM, Pt.8) was 72.1176 and 72.8235 (2×) and the “MTS proliferation data value” ([6]; 5 µM, Pt.1) was 14.3023. The “MTS proliferation data value” ([6]; 5 µM, Pt.4) was 43.444 and 45.8075 and 44.1193, the “MTS proliferation data value” ([6]; 5 µM, Pt.8) was 55.5294 and the IC50 ([6]; n = 8 samples, 96-hour treatment, read-out: median IC50 in primary AML patient samples) was 120 nM. It also gave an IC50 ([6]; read-out: IC50 [95% CI], Pt. 1, 96-hour treatment) of 23 nM, an IC50 ([6]; read-out: IC50 [95% CI], Pt. 2, 96-hour treatment) of 103 nM and an IC50 ([6]; read-out: IC50 [95% CI], Pt. 3, 96-hour treatment) of 85 nM. For the same compound, the IC50 ([6]; read-out: IC50 [95% CI], Pt. 4, 96-hour treatment) was 112 nM, the IC50 ([6]; read-out: IC50 [95% CI], Pt. 5, 96-hour treatment) was 129 nM and the IC50 ([6]; read-out: IC50 [95% CI], Pt. 6, 96-hour treatment) was 155 nM. For the same compound, the IC50 ([6]; read-out: IC50 [95% CI], Pt. 7, 96-hour treatment) was 169 nM, the IC50 ([6]; read-out: IC50 [95% CI], Pt. 8, 96-hour treatment) was 584 nM and the IC50 [7] was 11200 nM.
